Test results as given in patent US8168639B2, “Heterotricyclic compounds as serotonergic and/or dopaminergic agents and uses thereof” (ATIR Holding S.A., priority 2006, dated 2012).

The molecules below were run against T1, D4.4 type dopamine receptor (human recombinant, CHO cells) (Homo sapiens, UniProt P21917) (assay: Competitive binding to D4.4 dopamine receptor, [3H]-YM-09151-2 radioligand). Details: 100 nM compound; [3H]-YM-09151-2 0.3 nM.
T1 construct: expressed in transfected cells; host or cells: CHO cells
T1 sequence (P21917 1-419): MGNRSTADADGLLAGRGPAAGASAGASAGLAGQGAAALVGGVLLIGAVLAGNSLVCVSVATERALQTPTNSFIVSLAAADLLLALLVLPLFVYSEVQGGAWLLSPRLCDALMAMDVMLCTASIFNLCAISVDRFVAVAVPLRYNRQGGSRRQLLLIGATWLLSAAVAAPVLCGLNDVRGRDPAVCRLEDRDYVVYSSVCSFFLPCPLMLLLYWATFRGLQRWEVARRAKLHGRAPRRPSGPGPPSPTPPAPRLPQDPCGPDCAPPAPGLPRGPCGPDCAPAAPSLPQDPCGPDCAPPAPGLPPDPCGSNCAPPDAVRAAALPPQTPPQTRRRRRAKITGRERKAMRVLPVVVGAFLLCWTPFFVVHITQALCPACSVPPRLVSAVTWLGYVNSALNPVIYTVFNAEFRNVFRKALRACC
Experimental: Compounds were assayed for competitive binding to the D4.4 type dopamine receptors, which is expressed as human recombinant proteins in CHO cells, as described, for example, in Jarvis et al. (1973); Van Tol et al. (1991) and Van Tol et al. (1992).
Determination of binding to D4.4 receptor was performed using [^3H]-YM-09151-2 (70-87 Ci/mmol, 0.3 nM), as a radioligand, in with the presence of various concentrations of the tested compound. Reactions were carried out in 50 mM TRIS-HCl (pH 7.4) containing 5 mM MgCl2, 5 mM EDTA, 5 mM KCl and 1.5 mM CaCl2, for 60 minutes at 22° C. The reaction was terminated by rapid vacuum filtration onto glass fiber filters. Radioactivity trapped onto the filters was determined (counted) and compared to control values in order to accurately evaluate any interaction of the tested compound(s) with the cloned dopamine D4.4 binding site.

**Q.** With `Oc1cccc(N2CCN(Cc3cc4c(cn3)[nH]c3ccccc34)CC2)c1` [Compound B-96] as the molecule, how does the “D4.4(h) receptor Competitive Binding, % at 100 nM” value read?
**A.** The value was 87.6%.

**Q.** Which “D4.4(h) receptor Competitive Binding, % at 100 nM” value does the source give for `CCOc1ccccc1N1CCN(Cc2cc3c(cn2)[nH]c2ccccc23)CC1` [Compound B-97] here?
**A.** Its value is 74.27%.

**Q.** With `COc1ccccc1N1CCN(Cc2cc3c(cn2)[nH]c2ccccc23)CC1` [Compound B-99] as the molecule, how does the “D4.4(h) receptor Competitive Binding, % at 100 nM” value read?
**A.** Its value is 97.43%.

Same assay, conditions: 1 μM compound; [3H]-YM-09151-2 0.3 nM

**Q.** `Oc1cccc(N2CCN(Cc3cc4c(cn3)[nH]c3ccccc34)CC2)c1` [Compound B-96] was tested. Which “D4.4(h) receptor Competitive Binding, % at 1 μM” value did it give?
**A.** The value was 102.45%.

**Q.** For `CCOc1ccccc1N1CCN(Cc2cc3c(cn2)[nH]c2ccccc23)CC1` [Compound B-97], which “D4.4(h) receptor Competitive Binding, % at 1 μM” value is on record?
**A.** Its value is 100.99%.

**Q.** `COc1ccccc1N1CCN(Cc2cc3c(cn2)[nH]c2ccccc23)CC1` [Compound B-99] was tested. Which “D4.4(h) receptor Competitive Binding, % at 1 μM” value did it give?
**A.** The value was 102.4%.

These molecules were tested against T2, 5-HT1A type serotonin receptor (human recombinant, HEK-293 cells) (Homo sapiens, UniProt P08908) (assay: Competitive binding to 5-HT1A receptor, [3H]-8-OH-DPAT radioligand). Details: 1 nM compound; [3H]-8-OH-DPAT 0.5 nM.
T2 construct: expressed in transfected cells; host or cells: HEK-293 cells
T2 sequence (P08908 1-422): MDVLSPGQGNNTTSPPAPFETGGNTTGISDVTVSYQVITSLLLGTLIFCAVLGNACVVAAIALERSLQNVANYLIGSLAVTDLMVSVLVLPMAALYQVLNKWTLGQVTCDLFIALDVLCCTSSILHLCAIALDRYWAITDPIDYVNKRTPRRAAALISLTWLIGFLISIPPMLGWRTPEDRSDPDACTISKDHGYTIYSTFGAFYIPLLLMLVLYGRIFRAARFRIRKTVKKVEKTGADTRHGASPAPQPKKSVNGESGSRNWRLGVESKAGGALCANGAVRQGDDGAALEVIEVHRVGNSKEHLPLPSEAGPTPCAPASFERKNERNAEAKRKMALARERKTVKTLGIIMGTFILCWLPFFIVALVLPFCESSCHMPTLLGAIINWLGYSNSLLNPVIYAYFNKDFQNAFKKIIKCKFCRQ
Experimental: Compounds were assayed for competitive binding to the 5-HT1A type serotonin receptor. The receptor is expressed as human recombinant proteins in HEK-293 cells, as described, for example, in Hoyer et al. (1985) and Schoeffter and Hoyer (1989).
Determination of binding to 5-HT1A receptor was performed using [^3H]-8-OH-DPAT, a 5-HT1A receptor ligand (Hoyer et al., 1985), as a radioligand (221 Ci/mmol, 0.5 nM) in the presence of various concentrations of the tested compound. Reactions were carried out in 50 mM Tris-HCl (pH 7.4) containing 10 mM MgSO4, 0.5 mM EDTA, and 0.1% ascorbic acid for 60 minutes at 25° C. The reaction was terminated by rapid vacuum filtration onto glass fiber filters. Radioactivity trapped onto the filters was determined (counted) and compared to control values in order to accurately evaluate any interaction of the test compound(s) with the cloned 5-HT1A receptor binding site.

**Q.** With `Oc1cccc(N2CCN(Cc3cc4c(cn3)[nH]c3ccccc34)CC2)c1` [Compound B-96] as the molecule, how does the “5HT1A receptor Binding % at 1 nM” value read?
**A.** The value was “active”.

**Q.** For `CCOc1ccccc1N1CCN(Cc2cc3c(cn2)[nH]c2ccccc23)CC1` [Compound B-97], which “5HT1A receptor Binding % at 1 nM” value is on record?
**A.** Its value is 1.78%.

**Q.** How did the “5HT1A receptor Binding % at 1 nM” value turn out when `COc1ccccc1N1CCN(Cc2cc3c(cn2)[nH]c2ccccc23)CC1` [Compound B-99] was run?
**A.** The value was “active”.

Same assay, conditions: 10 nM compound; [3H]-8-OH-DPAT 0.5 nM

**Q.** `Oc1cccc(N2CCN(Cc3cc4c(cn3)[nH]c3ccccc34)CC2)c1` [Compound B-96] was tested. Which “5HT1A receptor Binding % at 10 nM” value did it give?
**A.** Its value is “active”.

**Q.** How did the “5HT1A receptor Binding % at 10 nM” value turn out when `CCOc1ccccc1N1CCN(Cc2cc3c(cn2)[nH]c2ccccc23)CC1` [Compound B-97] was run?
**A.** The value was 37.48%.

**Q.** With `COc1ccccc1N1CCN(Cc2cc3c(cn2)[nH]c2ccccc23)CC1` [Compound B-99] as the molecule, how does the “5HT1A receptor Binding % at 10 nM” value read?
**A.** The value was “active”.

Same assay, conditions: 100 nM compound; [3H]-8-OH-DPAT 0.5 nM

**Q.** With `Oc1cccc(N2CCN(Cc3cc4c(cn3)[nH]c3ccccc34)CC2)c1` [Compound B-96] as the molecule, how does the “5HT1A receptor Binding % at 100 nM” value read?
**A.** Its value is “active”.

**Q.** For `CCOc1ccccc1N1CCN(Cc2cc3c(cn2)[nH]c2ccccc23)CC1` [Compound B-97], which “5HT1A receptor Binding % at 100 nM” value is on record?
**A.** The value was 75.08%.

**Q.** `COc1ccccc1N1CCN(Cc2cc3c(cn2)[nH]c2ccccc23)CC1` [Compound B-99] was tested. Which “5HT1A receptor Binding % at 100 nM” value did it give?
**A.** The value was “active”.

Same assay, conditions: 1 μM compound; [3H]-8-OH-DPAT 0.5 nM

**Q.** For `Oc1cccc(N2CCN(Cc3cc4c(cn3)[nH]c3ccccc34)CC2)c1` [Compound B-96], which “5HT1A receptor Binding % at 1 μM” value is on record?
**A.** Its value is “active”.

**Q.** Which “5HT1A receptor Binding % at 1 μM” value does the source give for `CCOc1ccccc1N1CCN(Cc2cc3c(cn2)[nH]c2ccccc23)CC1` [Compound B-97] here?
**A.** The value was 99.45%.

**Q.** `COc1ccccc1N1CCN(Cc2cc3c(cn2)[nH]c2ccccc23)CC1` [Compound B-99] was tested. Which “5HT1A receptor Binding % at 1 μM” value did it give?
**A.** The value was “active”.

Same assay, conditions: 5 μM compound; [3H]-8-OH-DPAT 0.5 nM

**Q.** Which “5HT1A receptor Binding % at 5 μM” value does the source give for `Oc1cccc(N2CCN(Cc3cc4c(cn3)[nH]c3ccccc34)CC2)c1` [Compound B-96] here?
**A.** The value was “active”.

**Q.** Which “5HT1A receptor Binding % at 5 μM” value does the source give for `CCOc1ccccc1N1CCN(Cc2cc3c(cn2)[nH]c2ccccc23)CC1` [Compound B-97] here?
**A.** The value was 100.34%.

**Q.** For `COc1ccccc1N1CCN(Cc2cc3c(cn2)[nH]c2ccccc23)CC1` [Compound B-99], which “5HT1A receptor Binding % at 5 μM” value is on record?
**A.** Its value is “active”.

What follows are molecules tested against T3, Human recombinant serotonin 5-HT1A receptors expressed in CHO cells (Homo sapiens, UniProt P08908) (assay: [35S]GTPγS 5-HT1A activity assay). Details: 10 μM compound; [35S]GTPγS binding increase relative to serotonin.
T3 construct: expressed in transfected cells; host or cells: CHO cells
T3 sequence (P08908 1-422): T2 sequence (P08908 1-422)
Type: biochemical
Experimental: Human recombinant serotonin 5-HT1A receptors expressed in CHO cells were used. The tested compound were incubated with cell membranes and [^35S]GTPγS for 30 minutes in modified HEPES buffer (pH=7.4). Test compound-induced increase of [^35S]GTPγS binding was quantified relative to serotonin-induced increase of [^35S]GTPγS. Compounds were tested at concentrations of 10, 1 and 0.1 μM.

**Q.** With `Oc1cccc(N2CCN(Cc3cc4c(cn3)[nH]c3ccccc34)CC2)c1` [Compound B-96] as the molecule, how does the “% activation of 5HT1A at 10 μM” value read?
**A.** The value was “active”.

**Q.** For `CCOc1ccccc1N1CCN(Cc2cc3c(cn2)[nH]c2ccccc23)CC1` [Compound B-97], which “% activation of 5HT1A at 10 μM” value is on record?
**A.** The value was 48%.

**Q.** With `COc1ccccc1N1CCN(Cc2cc3c(cn2)[nH]c2ccccc23)CC1` [Compound B-99] as the molecule, how does the “% activation of 5HT1A at 10 μM” value read?
**A.** The value was “active”.

Each molecule was assayed on Sprague Dawley rats (assay: Penile erection test in rats). Details: 0.3 µmol/kg, subcutaneous.
Type: in vivo, rat
Experimental: Penile erection was tested in Sprague Dawley rats. The experimental group included 50 adult male rats, with body weights in the range of 312-330 grams. The animals were housed for acclimatization in a cage, and water and food were supplied ad libitum.
Penile erection experiments were carried out in morning hours between 9 AM and 11 AM, in a dark room with a red light source. Control groups included 10 animals that received saline as a placebo, and 10 animals that received 0.3 μmol/kg body weight of apomorphine hydrochloride in 1 ml of saline, as a positive control. […]
Penile erection was tested in Sprague Dawley rats, according to the protocol described hereinabove.

**Q.** Which “Number of animals showing moderate to strong erection” value does the source give for `COc1ccccc1N1CCN(Cc2cc3c(cn2)[nH]c2ccccc23)CC1` [Compound B-99] here?
**A.** Its value is 26 of the 30 animals.

**Q.** What about the “Time during which erection was shown” value of the same molecule?
**A.** Its value is 45 to 70 min.

**Q.** With `CN1CCc2cccc3c2[C@H]1Cc1ccc(O)c(O)c1-3` [apomorphine, reference compound] as the molecule, how does the “Time during which erection was shown” value read?
**A.** The value was 15 to 25 min.

Same assay, conditions: 0.3 µmol/kg, subcutaneous, moderate to strong erection

**Q.** Which “Percent of animals showing erection response” value does the source give for `COc1ccccc1N1CCN(Cc2cc3c(cn2)[nH]c2ccccc23)CC1` [Compound B-99] here?
**A.** The value was 87%.

**Q.** With `CN1CCc2cccc3c2[C@H]1Cc1ccc(O)c(O)c1-3` [apomorphine, reference compound] as the molecule, how does the “Percent of animals showing erection response” value read?
**A.** Its value is 70%.

Each molecule was assayed on Male ferrets (Mustela putorius furo) (assay: Ferret emesis model). Details: 0.3 μmol/kg subcutaneous, observed 90 minutes.
Type: in vivo, ferret (Mustela putorius furo)
Experimental: Male ferrets (Mustela putorius furo) were made to fast overnight before experiments. 18 animals (weighing 0.8-1.0 kg) were divided into the following three groups of six:
(1) test group—received the compound being tested, e dissolved in 1 ml saline at a dose of 0.3 μmol/kg body weight, administered subcutaneously;
(2) negative control—received saline; and
(3) positive control—received apomorphine.
Animals were placed individually in observation cages and received cat food 30 minutes before the experiment.
One ml of saline was administered subcutaneously. Apomorphine and the test compound were dissolved in 1 ml saline at a dose of 0.3 μmol/kg body weight. Induced emesis or nausea was determined by direct observation during 90 minutes following drug injection. Nausea was characterized by behavior such as licking, gagging, backing, head burying and intense abdominal grooming. Emesis was characterized by rhythmic abdominal contractions.

**Q.** `COc1ccccc1N1CCN(Cc2cc3c(cn2)[nH]c2ccccc23)CC1` [Compound B-99] was tested. Which “Number of ferrets showing signs of nausea and/or emesis” value did it give?
**A.** Its value is “none”.

**Q.** With `CN1CCc2cccc3c2[C@H]1Cc1ccc(O)c(O)c1-3` [apomorphine, reference compound] as the molecule, how does the “Number of ferrets showing signs of nausea and/or emesis” value read?
**A.** Its value is 4 of the 6 ferrets.
